# Values quoted from earlier work, collected in PMC12586580 (Nature Communications, 2025).
Molecule,affinity for Man (Pmt2 MIR domain),affinity for Man (Pmt3 MIR domain),Pmt4 substrate property (in words) (Pmt4)
"OC[C@H]1OC(O)[C@@H](O)[C@@H](O)[C@@H]1O (stereo partly drawn) [Man, mannose]",low mM affinity,low mM affinity,–
Ccw5: yeast cell wall protein 5 (Ccw5) (ASKTSTNATSSSCATPSLKD),–,–,good Pmt4 substrate
